Experimental data taken from PMC4225485, “The PHD1 finger of KDM5B recognizes unmodified H3K4 during the demethylation of histone H3K4me2/3 by KDM5B” (Protein & Cell, 2014).

Tests used:
KDM5B-PHD1-L324A = molecular target: T1, KDM5B-PHD1-L324A (Homo sapiens, UniProt Q9UGL1, L324A); test: ITC binding, PHD1 L324A mutant; details: Table S1, pH 7.5, 25°C
T1 construct: PHDKDM5B (residues 306–360 aa); GST (N, cleaved yes); made in house
Method: (§1) A similar PHDKDM5B construct was used for the sample required in the NMR experiments. ^13C- and ^15N-labeled PHDKDM5B were prepared in M9 medium. Site-directed mutagenesis was performed using a QuikChange site-directed mutagenesis kit (Stratagene Inc. La Jolla, California, U.S.A). All of the DNA constructs were sequenced, and the molecular weights of the recombinant proteins were verified by mass spectrometry (MALDI).
(§2) To investigate whether the PHD1KDM5B finger and its mutants interact with unmodified or methylated H3K4 or H3K4mutants, the binding affinities of PHD1KDM5B or its mutants to H3 peptides were studied. An ITC-200 microcalorimeter (GE Healthcare) was used with a buffer containing 20 mmol/L Tris, 150 mmol/L NaCl, and 1% Triton X-100, pH 7.5 at 25°C. The reference titration of small molecules in the buffer was subtracted from the experimental data, and the data were fitted using the Origin 7.0 (OriginLab Corporation) software.

KDM5B-PHD1-L309A = molecular target: T2, KDM5B-PHD1-L309A (Homo sapiens, UniProt Q9UGL1, L309A); test: ITC binding, PHD1 L309A mutant; details: Table S1, pH 7.5, 25°C
T2 construct: PHDKDM5B (residues 306–360 aa); GST (N, cleaved yes); made in house
Method: as §1, §2

KDM5B-PHD1-V311A = molecular target: T3, KDM5B-PHD1-V311A (Homo sapiens, UniProt Q9UGL1, V311A); test: ITC binding, PHD1 V311A mutant; details: Table S1, pH 7.5, 25°C
T3 construct: PHDKDM5B (residues 306–360 aa); GST (N, cleaved yes); made in house
Method: as §1, §2

KDM5B-PHD1-D345A = molecular target: T4, KDM5B-PHD1-D345A (Homo sapiens, UniProt Q9UGL1, D345A); test: ITC binding, PHD1 D345A mutant; details: Table S1, pH 7.5, 25°C
T4 construct: PHDKDM5B (residues 306–360 aa); GST (N, cleaved yes); made in house
Method: as §1, §2

KDM5B-PHD1-Y334A = molecular target: T5, KDM5B-PHD1-Y334A (Homo sapiens, UniProt Q9UGL1, Y334A); test: ITC binding, PHD1 Y334A mutant; details: Table S1, pH 7.5, 25°C
T5 construct: PHDKDM5B (residues 306–360 aa); GST (N, cleaved yes); made in house
Method: as §1, §2

KDM5B-PHD1-W351A = molecular target: T6, KDM5B-PHD1-W351A (Homo sapiens, UniProt Q9UGL1, W351A); test: ITC binding, PHD1 W351A mutant
T6 construct: PHDKDM5B (residues 306–360 aa); GST (N, cleaved yes); made in house
Method: as §1, §2

KDM5B-PHD1-L325A = molecular target: T7, KDM5B-PHD1-L325A (Homo sapiens, UniProt Q9UGL1, L325A); test: ITC binding, PHD1 L325A mutant
T7 construct: PHDKDM5B (residues 306–360 aa); GST (N, cleaved yes); made in house
Method: as §1, §2

KDM5B-PHD1-D322A = molecular target: T8, KDM5B-PHD1-D322A (Homo sapiens, UniProt Q9UGL1, D322A); test: ITC binding, PHD1 D322A mutant; details: Table S1, pH 7.5, 25°C
T8 construct: PHDKDM5B (residues 306–360 aa); GST (N, cleaved yes); made in house
Method: as §1, §2

KDM5B-PHD1-S333A = molecular target: T9, KDM5B-PHD1-S333A (Homo sapiens, UniProt Q9UGL1, S333A); test: ITC binding, PHD1 S333A mutant; details: Table S1, pH 7.5, 25°C
T9 construct: PHDKDM5B (residues 306–360 aa); GST (N, cleaved yes); made in house
Method: as §1, §2

KDM5B-PHD1-D332A = molecular target: T10, KDM5B-PHD1-D332A (Homo sapiens, UniProt Q9UGL1, D332A); test: ITC binding, PHD1 D332A mutant; details: Table S1, pH 7.5, 25°C
T10 construct: PHDKDM5B (residues 306–360 aa); GST (N, cleaved yes); made in house
Method: as §1, §2

T1 sequence (Q9UGL1 306-360 L324A): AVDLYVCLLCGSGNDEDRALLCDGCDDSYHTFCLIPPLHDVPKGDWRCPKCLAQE
T4 sequence (Q9UGL1 306-360 D345A): as the sequence (Q9UGL1 306-360 L324A) above, with A19L, D40A counted along it
T6 sequence (Q9UGL1 306-360 W351A): as the sequence (Q9UGL1 306-360 L324A) above, with A19L, W46A counted along it
T5 sequence (Q9UGL1 306-360 Y334A): as the sequence (Q9UGL1 306-360 L324A) above, with A19L, Y29A counted along it
T3 sequence (Q9UGL1 306-360 V311A): as the sequence (Q9UGL1 306-360 L324A) above, with V6A, A19L counted along it
T2 sequence (Q9UGL1 306-360 L309A): as the sequence (Q9UGL1 306-360 L324A) above, with L4A, A19L counted along it
T7 sequence (Q9UGL1 306-360 L325A): as the sequence (Q9UGL1 306-360 L324A) above, with A19L, L20A counted along it
T9 sequence (Q9UGL1 306-360 S333A): as the sequence (Q9UGL1 306-360 L324A) above, with A19L, S28A counted along it
T8 sequence (Q9UGL1 306-360 D322A): as the sequence (Q9UGL1 306-360 L324A) above, with D17A, A19L counted along it
T10 sequence (Q9UGL1 306-360 D332A): as the sequence (Q9UGL1 306-360 L324A) above, with A19L, D27A counted along it

- Kd (KDM5B-PHD1-L324A): 15.3 ± 0.7 µM
- Kd (KDM5B-PHD1-L309A): 8.3 ± 0.5 µM
- Kd (KDM5B-PHD1-V311A): 8.2 ± 0.3 µM
- Kd (KDM5B-PHD1-D345A): 6.7 ± 0.3 µM
- Kd (KDM5B-PHD1-Y334A): 12.6 ± 0.4 µM
- binding affinity (KDM5B-PHD1-W351A): non-detectable
- binding affinity (KDM5B-PHD1-L325A): non-detectable
- Kd (KDM5B-PHD1-D322A): 10.7 ± 0.5 µM
- Kd (KDM5B-PHD1-S333A): 12.9 ± 0.5 µM
- Kd (KDM5B-PHD1-D332A): 11.3 ± 0.5 µM
SMILES: C[C@H](N)C(=O)N[C@@H](CCCNC(=N)N)C(=O)N[C@H](C(=O)N[C@@H](CCCCN)C(=O)N[C@@H](CCC(N)=O)C(=O)N[C@H](C(=O)N[C@@H](C)C(=O)N[C@@H](CCCNC(=N)N)C(=O)N[C@@H](CCCCN)C(=O)N[C@@H](CO)C(=O)O)[C@@H](C)O)[C@@H](C)O [H3K4me0]
